Data: patent publication US6369222B1, “mGluR antagonists and a method for their synthesis” (Hoffmann-La Roche Inc., priority 2000, dated 2002)

Legend:
rat mGluR1a receptor = target: T1, rat mGluR1a receptor (Rattus norvegicus, UniProt P23385); test: Binding assay for the characterization of mGluR 1 antagonistic properties (displacement of tritiated 1-ethyl-2-methyl-6-oxo-4-(1,1,2-tritritio-1,2,4,5-tetrahydro-benzo[d]azepin-3-yl)-1,6-dihydro-pyrimidine-5-carbonitrile); conditions: membranes of HEK 293 cells transiently transfected with rat mGluR1a, 10 μg protein per assay; radioligand 3 nM; 1 hour at room temperature; read-out: B-IC50
T1 construct: expressed in transfected cells; host or cells: HEK 293 cells, transient transfection; membranes used
Procedure: Binding Assay for the Characterization of mGluR 1 Antagonistic Properties
Binding assay with tritiated 1-ethyl-2-methyl-6-oxo-4-(1,1,2-tritritio-1,2,4,5-tetrahydro-benzo[d]azepin-3-yl)-1,6-dihydro-pyrimidine-5-carbonitrile: HEK 293 cells were transiently transfected with the rat mGluR1a receptor. The cells were collected and washed 3 times with PBS. The cell pellets were frozen at −80° C. Membranes were prepared from HEK 293 cells transfected with the rat mGluR1a receptor and used in the binding experiments at 10 μg proteins per assay after resuspension in a HEPES NaOH 20 mM, pH=7.4 binding buffer. 1-Ethyl-2-methyl-6-oxo-4-(1,1,2-tritritio-1,2,4,5-tetrahydro-benzo[d]azepin-3-yl)-1,6-dihydro-pyrimidine-5-carbonitrile (S.A. 33.4 Ci/mmol) was used at 3 nM final concentration. The incubation with variable concentrations of potential inhibitors was performed for 1 hour at room temperature, the incubate was then filtered onto GF/B glass fiber filter preincubated 1 hour in PEI 0,1% and washed 3 times with 1 ml of cold binding buffer. The radioactivity retained on the unifilter 96 was counted using a Topcount β counter. After correction for non specific binding the data were normalized and the IC50 value calculated using a 4 parameters logistic equation which was fitted to the inhibition curve.

T1 sequence (P23385 19-1199): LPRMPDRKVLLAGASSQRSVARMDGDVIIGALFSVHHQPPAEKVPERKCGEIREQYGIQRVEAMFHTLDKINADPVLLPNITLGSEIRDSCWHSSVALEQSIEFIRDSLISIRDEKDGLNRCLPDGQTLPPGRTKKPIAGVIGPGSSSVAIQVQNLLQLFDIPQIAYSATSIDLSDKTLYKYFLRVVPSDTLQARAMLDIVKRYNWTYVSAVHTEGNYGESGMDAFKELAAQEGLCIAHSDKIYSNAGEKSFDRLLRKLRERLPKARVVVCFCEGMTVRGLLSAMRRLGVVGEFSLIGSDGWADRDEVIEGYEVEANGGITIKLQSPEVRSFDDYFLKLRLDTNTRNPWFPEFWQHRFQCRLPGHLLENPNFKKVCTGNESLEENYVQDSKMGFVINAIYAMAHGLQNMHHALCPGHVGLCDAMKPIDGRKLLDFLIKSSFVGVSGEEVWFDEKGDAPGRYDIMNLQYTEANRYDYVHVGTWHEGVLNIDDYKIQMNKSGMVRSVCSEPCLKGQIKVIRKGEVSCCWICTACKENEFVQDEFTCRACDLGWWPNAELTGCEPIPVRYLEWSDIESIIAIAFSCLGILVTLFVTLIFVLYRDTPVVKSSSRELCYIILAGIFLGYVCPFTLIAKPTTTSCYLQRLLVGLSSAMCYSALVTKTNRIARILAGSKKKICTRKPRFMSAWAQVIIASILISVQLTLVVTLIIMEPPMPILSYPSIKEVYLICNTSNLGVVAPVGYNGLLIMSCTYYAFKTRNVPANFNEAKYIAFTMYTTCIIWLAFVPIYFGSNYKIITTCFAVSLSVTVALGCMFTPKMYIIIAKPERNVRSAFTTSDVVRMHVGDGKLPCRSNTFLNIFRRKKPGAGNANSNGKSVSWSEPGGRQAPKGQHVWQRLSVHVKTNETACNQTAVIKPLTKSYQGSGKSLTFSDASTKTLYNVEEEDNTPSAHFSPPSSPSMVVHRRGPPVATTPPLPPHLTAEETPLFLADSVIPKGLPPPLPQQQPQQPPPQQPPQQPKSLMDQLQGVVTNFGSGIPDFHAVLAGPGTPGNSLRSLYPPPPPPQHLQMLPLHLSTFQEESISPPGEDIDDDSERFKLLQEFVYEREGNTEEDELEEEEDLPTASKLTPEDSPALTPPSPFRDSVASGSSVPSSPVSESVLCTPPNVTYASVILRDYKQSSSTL

Row | IC50 (rat mGluR1a receptor) [µM] | melting point [°C] | Compound
1 | 30 | > 200 | Cc1nc(N2CCc3nc(C)sc3CC2)c([N+](=O)[O-])c(=O)[nH]1 [Example 1, 2-methyl-6-(2-methyl-4,5,7,8-tetrahydro-thiazolo[4,5-d]azepin-6-yl)-5-nitro-3H-pyrimidin-4-one]
2 |  | 164.2 to 166.8 | CCn1c(C)nc(N2CCc3nc(C)sc3CC2)c([N+](=O)[O-])c1=O [Example 2, 3-Ethyl-2-methyl-6-(2-methyl-4,5,7,8-tetrahydro-thiazolo[4,5-d]azepin-6-yl)-5-nitro-3H-pyrimidin-4-one]
3 | 49 | > 200 | Cc1nc(N2CCc3nc(N)sc3CC2)c([N+](=O)[O-])c(=O)[nH]1 [Example 3, 6-(2-Amino-4,5,7,8-tetrahydro-thiazolo[4,5-d]azepin-6-yl)-2-methyl-5-nitro-3H-pyrimidin-4-one]
4 | 6 | > 200 | CCn1c(C)nc(N2CCc3nc(N)sc3CC2)c([N+](=O)[O-])c1=O [Example 4, 6-(2-Amino-4,5,7,8-tetrahydro-thiazolo[4,5-d]azepin-6-yl)-3-ethyl-2-methyl-5-nitro-3H-pyrimidin-4-one]
5 |  | > 200 | Cc1nc(O)c2c(n1)CCN(c1nc(C)nc(O)c1[N+](=O)[O-])CC2 [Example 5, 7-(6-Hydroxy-2-methyl-5-nitro-pyrimidin-4-yl)-2-methyl-6,7,8,9-tetrahydro-5H-pyrimido[4,5-d]azepin-4-ol]
6 | 43 |  | Cc1nc(N2CCc3ncsc3CC2)c([N+](=O)[O-])c(=O)[nH]1 [Example 6, 2-Methyl-5-nitro-6-(4,5,7,8-tetrahydro-thiazolo[4,5-d]azepin-6-yl)-3H-pyrimidin-4-one]
7 |  | > 200 | Cc1nc(O)c([N+](=O)[O-])c(N2CCc3cncnc3CC2)n1 [Example 7, 2-Methyl-5-nitro-6-(5,6,8,9-tetrahydro-pyrimido[4,5-d]azepin-7-yl)-pyrimidin-4-ol]
8 | 1.9 | > 200 | Cc1nc(N2CCc3ccsc3CC2)c([N+](=O)[O-])c(=O)[nH]1 [Example 9, 2-Methyl-5-nitro-6-(4,5,7,8-tetrahydro-thieno[2,3-d]azepin-6-yl)-3H-pyrimidin-4-one]
